Assay results: publication PMC5008228 (Journal of Parkinson's Disease, 2016)
Several values for one entry are separate records, joined by “and”; a condition that tells them apart may be missing. Equal entries are not always repeated.

What was measured:
[1] = Nilotinib pharmacokinetics in plasma by mass spectrometry; type: in vivo; conditions: human, po, unbound Nilotinib; for AUC: Plasma AUC; for Cmax: Plasma Cmax
PDD or DLB participants [2] = assay: Unified Parkinson's Disease Rating Scale; type: in vivo, human; conditions: for UPDRS-I-IV score / UPDRS-III score: individual participants; for Average decrease in UPDRS-III (motor): week 24 compared to baseline
PDD or DLB participants [3] = assay: Mini Mental State Examination; type: in vivo, human; conditions: 300 ng (sub-heading as printed) oral daily; for MMSE score, AVG: group AVG (Screening AVG 17); for MMSE score: individual participants

Compound: Cc1cn(-c2cc(NC(=O)c3ccc(C)c(Nc4nccc(-c5cccnc5)n4)c3)cc(C(F)(F)F)c2)cn1 [Nilotinib]
- AUC ([1]; 150 mg, 150 mg oral): 157 ng·h/mL
- Cmax ([1]; 150 mg, 150 mg oral): 55 nM
- AUC ([1]; 300 mg, 300 mg oral): 232 ng·h/mL
- Cmax ([1]; 300 mg, 300 mg oral): 86 nM
- UPDRS-III score, AVG (PDD or DLB participants [2]; 150 mg oral daily, Week-4, group AVG (Screening AVG 37.8)): 29.4
- UPDRS-I-IV score (PDD or DLB participants [2]; 150 mg oral daily, Week-4): 54 and 103 and 43 and 71 and 50
- UPDRS-III score (PDD or DLB participants [2]; 150 mg oral daily, Week-4): 29 and 55 and 33 and 26
- UPDRS-III score, AVG (PDD or DLB participants [2]; 150 mg oral daily, Week-8, group AVG (Screening AVG 37.8)): 35.6
- UPDRS-I-IV score, AVG (PDD or DLB participants [2]; 150 mg oral daily, Week-8, group AVG (Screening AVG 72.60)): 69.00
- UPDRS-I-IV score (PDD or DLB participants [2]; 150 mg oral daily, Week-8): 57 and 76 and 63 and 45
- UPDRS-III score (PDD or DLB participants [2]; 150 mg oral daily, Week-8): 32 and 56 and 39 and 28 and 23
- UPDRS-III score, AVG (PDD or DLB participants [2]; 150 mg oral daily, Week-12, group AVG (Screening AVG 37.8)): 36.6
- UPDRS-I-IV score, AVG (PDD or DLB participants [2]; 150 mg oral daily, Week-12, group AVG (Screening AVG 72.60)): 69.40
- UPDRS-I-IV score (PDD or DLB participants [2]; 150 mg oral daily, Week-12): 56 and 107 and 77 and 60 and 47
- UPDRS-III score (PDD or DLB participants [2]; 150 mg oral daily, Week-12): 32 and 59 and 40 and 30 and 22
- UPDRS-III score, AVG (PDD or DLB participants [2]; 150 mg oral daily, Week-16, group AVG (Screening AVG 37.8)): 38
- UPDRS-I-IV score, AVG (PDD or DLB participants [2]; 150 mg oral daily, Week-16, group AVG (Screening AVG 72.60)): 70.20
- UPDRS-I-IV score (PDD or DLB participants [2]; 150 mg oral daily, Week-16): 58 and 107 and 80 and 63 and 43
- UPDRS-III score (PDD or DLB participants [2]; 150 mg oral daily, Week-16): 33 and 59 and 43 and 22
- UPDRS-III score, AVG (PDD or DLB participants [2]; 150 mg oral daily, Week-20, group AVG (Screening AVG 37.8)): 36.2
- UPDRS-I-IV score, AVG (PDD or DLB participants [2]; 150 mg oral daily, Week-20, group AVG (Screening AVG 72.60)): 67.80
- UPDRS-I-IV score (PDD or DLB participants [2]; 150 mg oral daily, Week-20): 53 and 83 and 57 and 38
- UPDRS-III score (PDD or DLB participants [2]; 150 mg oral daily, Week-20): 29 and 60 and 42 and 31 and 19
- UPDRS-III score, AVG (PDD or DLB participants [2]; 150 mg oral daily, Week-24, group AVG (Screening AVG 37.8)): 34.4
- UPDRS-I-IV score, AVG (PDD or DLB participants [2]; 150 mg oral daily, Week-24, group AVG (Screening AVG 72.60)): 65.60
- UPDRS-I-IV score (PDD or DLB participants [2]; 150 mg oral daily, Week-24): 44 and 83 and 53 and 40
- UPDRS-III score (PDD or DLB participants [2]; 150 mg oral daily, Week-24): 23 and 60 and 42 and 29 and 18
- Average decrease in UPDRS I-IV (PDD or DLB participants [2]; 150 mg oral daily, at 6 months): 7 points
- Average decrease in UPDRS-III (motor) (PDD or DLB participants [2]; 150 mg oral daily): 3.4 points
- UPDRS-III score, AVG (PDD or DLB participants [2]; 300 mg oral daily, Week-4, group AVG (Screening AVG 30.6)): 28
- UPDRS-I-IV score, AVG (PDD or DLB participants [2]; 300 mg oral daily, Week-4, group AVG (Screening AVG 62.5)): 60.8
- UPDRS-I-IV score (PDD or DLB participants [2]; 300 mg oral daily, Week-4): 31 and 45 and 21 and 49 and 116 and 103
- UPDRS-III score (PDD or DLB participants [2]; 300 mg oral daily, Week-4): 11 and 14 and 7 and 22 and 67 and 47
- UPDRS-III score, AVG (PDD or DLB participants [2]; 300 mg oral daily, Week-8, group AVG (Screening AVG 30.6)): 28
- UPDRS-I-IV score, AVG (PDD or DLB participants [2]; 300 mg oral daily, Week-8, group AVG (Screening AVG 62.5)): 60.3
- UPDRS-I-IV score (PDD or DLB participants [2]; 300 mg oral daily, Week-8): 28 and 41 and 25 and 45 and 118 and 105
- UPDRS-III score (PDD or DLB participants [2]; 300 mg oral daily, Week-8): 9 and 11 and 18 and 70 and 49
- UPDRS-III score, AVG (PDD or DLB participants [2]; 300 mg oral daily, Week-12, group AVG (Screening AVG 30.6)): 26.6
- UPDRS-I-IV score, AVG (PDD or DLB participants [2]; 300 mg oral daily, Week-12, group AVG (Screening AVG 62.5)): 57.3
- UPDRS-I-IV score (PDD or DLB participants [2]; 300 mg oral daily, Week-12): 26 and 41 and 19 and 46 and 115 and 97
- UPDRS-III score (PDD or DLB participants [2]; 300 mg oral daily, Week-12): 9 and 11 and 8 and 18 and 67 and 47
- UPDRS-III score, AVG (PDD or DLB participants [2]; 300 mg oral daily, Week-16, group AVG (Screening AVG 30.6)): 27.8
- UPDRS-I-IV score, AVG (PDD or DLB participants [2]; 300 mg oral daily, Week-16, group AVG (Screening AVG 62.5)): 58.8
- UPDRS-I-IV score (PDD or DLB participants [2]; 300 mg oral daily, Week-16): 33 and 46 and 17 and 49 and 113 and 95
- UPDRS-III score (PDD or DLB participants [2]; 300 mg oral daily, Week-16): 13 and 16 and 6 and 21 and 67 and 44
- UPDRS-III score, AVG (PDD or DLB participants [2]; 300 mg oral daily, Week-20, group AVG (Screening AVG 30.6)): 26.8
- UPDRS-I-IV score, AVG (PDD or DLB participants [2]; 300 mg oral daily, Week-20, group AVG (Screening AVG 62.5)): 55.3
- UPDRS-I-IV score (PDD or DLB participants [2]; 300 mg oral daily, Week-20): 23 and 41 and 16 and 54 and 106 and 92
- UPDRS-III score (PDD or DLB participants [2]; 300 mg oral daily, Week-20): 7 and 16 and 21 and 69 and 41
- UPDRS-III score, AVG (PDD or DLB participants [2]; 300 mg oral daily, Week-24, group AVG (Screening AVG 30.6)): 27
- UPDRS-I-IV score, AVG (PDD or DLB participants [2]; 300 mg oral daily, Week-24, group AVG (Screening AVG 62.5)): 51.6
- UPDRS-I-IV score (PDD or DLB participants [2]; 300 mg oral daily, Week-24): 20 and 28 and 15 and 45 and 107 and 95
- UPDRS-III score (PDD or DLB participants [2]; 300 mg oral daily, Week-24): 9 and 12 and 6 and 21 and 70 and 44
- Average decrease in UPDRS-III (motor) (PDD or DLB participants [2]; 300 mg oral daily): 3.6 points
- MMSE score, AVG (PDD or DLB participants [3]; Week-4): 20.3
- MMSE score (PDD or DLB participants [3]; Week-4): 27 and 28 and 24 and 5 and 10
- MMSE score, AVG (PDD or DLB participants [3]; Week-8): 18.1
- MMSE score (PDD or DLB participants [3]; Week-8): 28 and 23 and 24 and 2 and 8
